Results from publication PMC10527924 (Toxicology in vitro : an international journal published in …, 2023).
Read-outs that look alike come from different tables or passages of the source.

What was measured:
excised human skin (EHS) = conditions: female, 0.61 nmol/μL
[1] = 0.61 nmol/μL
[2] = tested on: EpiDerm-200-X reconstructed human epidermis (RhE)
[3] = not measured for this paper; no reference given; cited from earlier work
[4] = tested on: EpiDerm-200-X reconstructed human epidermis (RhE); assay: In vitro permeation testing; conditions: 5 mm orifice Franz cell, finite dose 6 nmol/cm^2

Row | SMILES | 6 h Cumulative Permeation (excised human skin (EHS)) [nmol/cm^2] | time of peak flux [1] [h] | 6 h Cumulative Permeation ([1]; 6 h) [nmol/cm^2] | vehicle effect on 6 h cumulative permeation [2] | time of mean peak flux ([2]; human, 0.61 nmol/μL) [h] | 6 h Cumulative Permeation ([2]; human, 0.61 nmol/μL) [nmol/cm^2] | Log Kow (n-octanol-water partition coefficient) [3] | time of mean peak flux [4] [h]
1 | Cn1c(=O)c2c(ncn2C)n(C)c1=O [caffeine] | 0.97 ± 0.22 | 2 | 0.43 ± 0.03 | statistically significant decrease | 3 | 3.32 ± 0.33 | −0.07 | 
2 | O=C(O)c1ccccc1O [salicylic acid] | 0.18 ± 0.10 |  |  | did not alter its permeation |  | 0.32 ± 0.05 | 2.26 | 
3 | C[C@]12CC[C@H]3[C@@H](CCC4=CC(=O)CC[C@@]43C)[C@@H]1CC[C@@H]2O [testosterone] |  |  |  |  |  |  |  | 2
